Experiment in all cases: HDAC Enzyme Activity Assay
In one test the target is T1, Histone deacetylase 6 (Mus musculus, UniProt Q9Z2V5).
T1 sequence (Q9Z2V5 whole entry): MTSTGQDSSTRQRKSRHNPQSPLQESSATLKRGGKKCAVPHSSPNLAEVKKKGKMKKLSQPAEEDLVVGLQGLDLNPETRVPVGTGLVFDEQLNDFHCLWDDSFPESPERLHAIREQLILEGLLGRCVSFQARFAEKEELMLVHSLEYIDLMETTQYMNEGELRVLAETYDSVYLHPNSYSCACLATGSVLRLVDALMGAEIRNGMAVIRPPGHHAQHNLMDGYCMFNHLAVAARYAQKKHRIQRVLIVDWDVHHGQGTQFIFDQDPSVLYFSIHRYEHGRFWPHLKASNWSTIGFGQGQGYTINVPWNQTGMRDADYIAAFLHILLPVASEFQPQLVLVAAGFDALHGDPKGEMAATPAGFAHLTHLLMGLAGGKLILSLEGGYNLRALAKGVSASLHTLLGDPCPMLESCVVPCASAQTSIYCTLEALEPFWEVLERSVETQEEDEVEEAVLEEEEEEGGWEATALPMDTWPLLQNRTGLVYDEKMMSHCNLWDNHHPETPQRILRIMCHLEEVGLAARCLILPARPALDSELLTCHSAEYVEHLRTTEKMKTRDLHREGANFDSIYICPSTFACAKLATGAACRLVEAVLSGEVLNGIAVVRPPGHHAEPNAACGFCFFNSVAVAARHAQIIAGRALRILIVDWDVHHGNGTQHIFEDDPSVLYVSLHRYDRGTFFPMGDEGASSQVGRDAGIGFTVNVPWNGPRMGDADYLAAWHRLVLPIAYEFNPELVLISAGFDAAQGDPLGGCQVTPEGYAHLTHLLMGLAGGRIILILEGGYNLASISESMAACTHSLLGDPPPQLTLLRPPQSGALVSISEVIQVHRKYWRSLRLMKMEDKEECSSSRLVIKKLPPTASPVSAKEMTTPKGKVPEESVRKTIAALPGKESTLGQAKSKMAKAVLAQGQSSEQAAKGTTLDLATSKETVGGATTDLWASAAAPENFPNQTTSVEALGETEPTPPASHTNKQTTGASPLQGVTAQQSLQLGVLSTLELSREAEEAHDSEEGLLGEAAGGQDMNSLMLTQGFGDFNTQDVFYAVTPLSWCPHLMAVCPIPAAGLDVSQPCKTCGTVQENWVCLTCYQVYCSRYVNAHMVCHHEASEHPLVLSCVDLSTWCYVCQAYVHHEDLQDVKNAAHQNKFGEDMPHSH
As for the experimental part:
(§1) For the enzyme assay, 10 µL of the enzyme fraction was added to 1 µL of fluorescent substrate (2 mM Ac-KGLGK(Ac)-MCA) and 9 µL of histone deacetylase buffer, and the mixture was incubated at 37 °C for 30 min. The reaction was stopped by the addition of 30 µL of trypsin (20 mg/mL) and incubated at 37 °C for 15 min. The released amino methyl coumarin (AMC) was measured using a fluorescence plate reader. DTT was added simultaneously with drugs to the enzyme solutions

A further test deals with Histone deacetylase 1 (Homo sapiens, UniProt Q13547). Here is the method: as §1
The target of another test is Histone deacetylase 4 (Homo sapiens, UniProt P56524). As for the experimental part: as §1

A word on the IC50: it is the concentration that gives 50% inhibition. Higher therefore signals weaker potency.

Histone deacetylase 4, sequence (P56524 whole entry): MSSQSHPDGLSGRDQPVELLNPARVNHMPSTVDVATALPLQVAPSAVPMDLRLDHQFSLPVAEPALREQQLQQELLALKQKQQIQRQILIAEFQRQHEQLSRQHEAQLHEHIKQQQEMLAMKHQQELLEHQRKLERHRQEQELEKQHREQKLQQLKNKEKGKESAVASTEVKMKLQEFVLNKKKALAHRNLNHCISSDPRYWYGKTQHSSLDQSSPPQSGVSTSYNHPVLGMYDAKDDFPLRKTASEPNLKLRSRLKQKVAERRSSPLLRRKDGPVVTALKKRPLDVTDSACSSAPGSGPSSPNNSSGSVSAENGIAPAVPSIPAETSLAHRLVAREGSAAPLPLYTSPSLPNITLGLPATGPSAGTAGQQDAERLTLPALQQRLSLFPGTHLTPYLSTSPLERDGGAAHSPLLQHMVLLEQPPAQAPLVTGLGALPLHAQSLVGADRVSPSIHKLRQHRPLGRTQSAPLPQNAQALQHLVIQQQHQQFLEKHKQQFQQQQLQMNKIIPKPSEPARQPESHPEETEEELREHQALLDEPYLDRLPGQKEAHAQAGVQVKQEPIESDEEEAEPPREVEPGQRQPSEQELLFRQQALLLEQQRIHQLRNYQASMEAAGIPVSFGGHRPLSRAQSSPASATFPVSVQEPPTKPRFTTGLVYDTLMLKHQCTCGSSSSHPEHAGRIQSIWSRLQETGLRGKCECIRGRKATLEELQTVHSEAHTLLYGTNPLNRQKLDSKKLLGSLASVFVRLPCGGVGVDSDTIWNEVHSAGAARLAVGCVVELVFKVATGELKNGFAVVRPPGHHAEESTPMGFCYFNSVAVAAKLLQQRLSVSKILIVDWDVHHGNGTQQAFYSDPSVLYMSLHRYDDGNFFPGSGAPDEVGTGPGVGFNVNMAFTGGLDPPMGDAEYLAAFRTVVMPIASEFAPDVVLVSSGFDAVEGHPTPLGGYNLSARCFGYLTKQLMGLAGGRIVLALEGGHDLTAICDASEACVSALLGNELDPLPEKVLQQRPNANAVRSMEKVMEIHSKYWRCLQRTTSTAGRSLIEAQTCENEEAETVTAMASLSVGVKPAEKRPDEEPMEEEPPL
Histone deacetylase 1, sequence (Q13547 whole entry): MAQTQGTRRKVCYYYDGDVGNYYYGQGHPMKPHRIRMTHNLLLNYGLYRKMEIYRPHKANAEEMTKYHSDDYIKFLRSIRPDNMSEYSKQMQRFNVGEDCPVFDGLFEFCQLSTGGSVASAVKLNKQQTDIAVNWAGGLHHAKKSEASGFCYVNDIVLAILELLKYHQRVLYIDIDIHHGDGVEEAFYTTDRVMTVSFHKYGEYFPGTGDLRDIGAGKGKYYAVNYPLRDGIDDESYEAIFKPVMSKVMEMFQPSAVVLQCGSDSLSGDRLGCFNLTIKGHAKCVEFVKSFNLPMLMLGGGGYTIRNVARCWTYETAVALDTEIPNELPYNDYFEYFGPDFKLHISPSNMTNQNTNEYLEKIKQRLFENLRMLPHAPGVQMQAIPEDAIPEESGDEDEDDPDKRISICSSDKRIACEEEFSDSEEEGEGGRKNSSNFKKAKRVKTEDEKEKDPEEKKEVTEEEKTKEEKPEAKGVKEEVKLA

In the case of `O=C(N[C@@H](CCCCCSSCCO)C(=O)Nc1cccc2cccnc12)OCc1ccccc1` [Z-L-Am7(betaMe)-QA (3)], the IC50 was determined as 3.2 nM against Histone deacetylase 6, 4.9 nM against Histone deacetylase 1 and 2 nM against Histone deacetylase 4.
For `O=C(CCCCC[C@H](NC(=O)OCc1ccccc1)C(=O)Nc1cccc2cccnc12)NO` [(S)-benzyl 8-(hydroxyamino)-1,8-dioxo-1-(quinolin-8-ylamino)octan-2-ylcarbamate] the same measures were 45 nM, 10 nM and 11 nM.
The like results for `O=C(NC(CCCCCSSCCCCC[C@H](NC(=O)OCc1ccccc1)C(=O)Nc1cccc2cccnc12)C(=O)Nc1cccc2cccnc12)OCc1ccccc1` (stereo partly drawn) [(Z-L-Am7(S-)-QA)2 (4)] were, in that order, 7.5 nM, 8.2 nM and 3.4 nM.
The like results for `COCCOCC(=O)SCCCCC[C@H](NC(=O)OCc1ccccc1)C(=O)Nc1cccc2cccnc12` [Z-L-Am7(AcEtMe)-QA (2)] were, in that order, 29 nM, 19 nM and 18 nM.
For `CC(=O)SCCCCC[C@H](NC(=O)OCc1ccccc1)C(=O)Nc1cccc2cccnc12` [Z-L-Am7(Ac)-QA (1)], the IC50 was 34 nM against Histone deacetylase 6, 47 nM against Histone deacetylase 1 and 18 nM at Histone deacetylase 4.
